Test results published in US7662851B2, “Use of specific cyklolignans” (Axelar AB, priority 2001, dated 2010).
Read-outs that look alike come from different tables or passages of the source.

Key:
[1] = tested on: K562/S chronic myeloid leukemia cells; assay: Leukemia cell viability, K562/S; assay type: cell-based, human; conditions: 72 h
Protocol: (§1) The human chronic myeloid leukemia K562/S and K562/Vcr30 lines and the acute myeloid leukemia cell lines HL60/0 and HL60/Nov were obtained from ATCC. The K562/S and […] are wild type (non-resistant) cells, whereas K562/Vcr30 and HL60/Nov are cytostatic-resistant sublines. All leukemia cell lines were cultured in RPMI 1640 medium supplemented with 10% fetal bovine serum and with 2 mM L-glutamine, benzylpenicillin (100 U/ml) and streptomycin (100 μg/ml). The cells were grown in tissue culture flasks maintained at 95% air/5% CO2 atmosphere at 37° C. in a humidified incubator. For the experiments cells were cultured in 60-mm plastic dishes or 96-well plastic plates.
(§2) Cell proliferation kit II (Roche Inc.) is based on colorimetric change of the yellow tetrazolium salt XTT in orange formazan dye by the respiratory chain of viable cells (Roehm, N W, et al., J Immunol Methods 142:257-265, 1991). Cells seeded at a concentration of 5000/well in 100 μl medium in a 96-well plate were treated with different drugs in the given concentration. After 24 or 48 h the cells were incubated, according to the manufacturer's protocol, with XTT labelling mixture. After 4 h the formazan dye is quantified using a scanning multiwell spectrophotometer with a 495-nm filter. The absorbance is directly correlated with the number of viable cells. The standard absorbance curve was drawn by means of untreated cells seeded at a concentration of from 1000 to 10 000 cells/well with an increasing rate of 1000 cells/well. All standards and experiments were performed in triplicates.
(§3) Cells of said cell lines were seeded in 96-well plates (25 000 cells/well, medium volume per well was 100 μl), in […] medium supplemented with fetal calf serum. After 24 h picropodophyllin and the derivatives alpha-apopicropodophyllin and beta-apopicropodo-phyllin were added at different concentrations and the cells were incubated for 72 h. Cell viability was then assayed (see above). […] The results are based on 3 different experiments.
(§4) The leukemia cell lines K562/S, […], HL60/0 and HL60/Nov were cultured in 96-well plates as described in Experiment 7. After 24 h, the cells were treated for 72 h with different concentrations of the anti-cancer agent vincristine, with and without co-incubation with 0.05 μM picropodophyllin. […] Cell viability was then assayed. IC50 values for each inhibitor and cell line are shown below (Table 8). The results are based on 3 different experiments.

[2] = tested on: K562/Vcr30 chronic myeloid leukemia cells; assay: Leukemia cell viability, K562/Vcr30; assay type: cell-based, human; conditions: K562/Vcr30, 72 h
Protocol: as §1, §2, §3, §4

[3] = tested on: HL60/0 acute myeloid leukemia cells; assay: Leukemia cell viability, HL60/0; assay type: cell-based, human
Protocol: as §1, §2, §3, §4

[4] = tested on: HL60/Nov acute myeloid leukemia cells; assay: Leukemia cell viability, HL60/Nov; assay type: cell-based, human
Protocol: as §1, §2, §3, §4

IGF-1R = IGF-1R (Homo sapiens, UniProt P08069); assay: Tyrosine phosphorylation of IGF-1R in intact FM55 melanoma cells; assay type: cell-based; design: endogenous in cells; conditions: for Level of IGF-1R phosphorylation in intact cells: FM55 melanoma cells, 1 h, means of 3 experiments
Protocol: Cells were cultured to subconfluency in 6-cm plates, and then fresh medium containing 10% FBS and the desired compounds were added for 1 h. The cells were then lyzed and subjected to immunoprecipitation using specific antibodies. Immunoprecipitates were resolved by sodium dodecyl sulphate polyacrylamide gel electrophoresis (SDS-PAGE) and transferred to nitro-cellulose membranes and incubated with anti-phosphotyrosine antibody. Antibodies to actin (in cell extract) or IGF-1R beta subunit were used as loading controls. After detection the films were scanned for quantification.
The isolated cells were then lyzed in 10 ml ice-cold PBSTDS containing protease inhibitors (Carlberg, M., et al., J Biol Chem 271:17453-17462, 1996). 50 μl protein A or G agarose was added in 1 ml sample and incubated for 15 min at 4° C. on an orbital shaker. After centrifugation for 10 min at 10,000 r/min at 4° C. the supernatant was saved. The protein content was determined by a dye-binding assay with a reagent purchased from Bio-Rad. Bovine serum albumin was used as a standard. 15 μl Protein G Plus agarose and 5 μl anti-IGF-1R were added. After a 3 h incubation at 4° C. on an orbital shaker the precipitate was collected by pulse centrifugation in a micro centrifuge at 14,000×g for 10 s. The supernatant was discarded and the pellet was washed 3 times with PBSTDS.
Protein samples were solved in a 2×-sample buffer containing Laemmli buffer and 0.5% […] and boiled for 5 min at 96° C. Samples were separated by SDS-PAGE with a 4% stacking gel and 7.5% separation gel. Molecular weight markers (Bio Rad, Sweden) were run simultaneously in all experiments.
Following SDS-PAGE the proteins were transferred overnight to nitro-cellulose membranes (Hybond, Amersham, UK) and then blocked for 1 h at room temperature in a solution of 4% skimmed milk powder and 0.02% Tween 20 in PBS, pH 7.5. Incubations with the primary antibodies were performed for 1 h at room temperature, followed by 3 washes with PBS with Tween and incubation with the second antibody for 1 h room temperature. After another 3 washes the membranes were incubated with Streptavidin-labelled horseradish peroxidase for 30 min and then detected using Amersham ECL system (Amersham, UK). The films were scanned by Fluor-S (BioRad).
FM55 melanoma cells were seeded in 6-cm dishes, at a concentration of 10,000 cells/cm^2 in Minimal Essential Medium supplemented with 10% fetal calf serum (FCS). When the cells reached a density of 65,000 cells/cm^2 in the dishes, they were treated for 1 h with 0.05 μM podophyllotoxin, deoxypodophyllotoxin, picropodophyllin, deoxypicropodophyllin, 4′-demethyl-7-(4,6-O-ethylidene-β-D-glucopyranosyl)epipodophyllotoxin (etoposide) and podophyllotoxin-4,6-O-benzylidene-β-D-glucopyranoside (pf-4,6-O). Etoposide and pf-4,6-O were also administered at 15 μM. The cells were then harvested for assay and quantification of IGF-1R phosphorylation as described in Experiment 1. The values shown in Table 1 represent means of 3 experiments.
FM55 melanoma cells were cultured in the same way as described in Experiment 1. When reaching a density of 65,000 cells/cm^2 in the dishes, they were treated for 1 h with 0 (control) and 0.05 μM of picropodophyllin and podophyllotoxin, respectively. The cells were then isolated and subjected to immunoprecipitation of the IGF-1R, fibroblast growth factor receptor (FGFR), platelet-derived growth factor receptor (PDGFR), epidermal growth factor receptor (EGFR), insulin receptor (IR) and insulin substrate-1 (IRS-1) using antibodies to respective molecules. IRS-1 is a substrate of IGF-1R, and therefore its phosphorylation is dependent on phosphorylated IGF-1R. Gelelectrophoresis, Western blotting and quantification of the different signals were performed as described above.

[5] = Local toxicity, subcutaneous osmotic pumps in nude mice; assay type: in vivo; conditions: subcutaneous osmotic pump loaded with 0.25 mg, 7 days
Protocol: Control mice were treated with the solvent. 3-6 animals were treated in each group.
The first set of experiments was carried out to investigate possible local and systemic toxic effects of podophyllotoxin, deoxypodophyllotoxin and picropodophyllin on nude mice. In the first experiment osmotic pumps loaded with either drug-free solvent, podophyllotoxin (0.25 mg), deoxypodophyllotoxin (0.25 mg) or picropodophyllin (0.25 mg) were implanted subcutaneously in the flank region. The drugs are delivered subcutaneously with a constant flow of 0.6 μl/h over 7 days. The volume of the pumps was 100 μl. After 7 days the mice were killed and the skin and subcutaneous tissue adjacent to the outlet of the pumps were analyzed and scored for tissue reactions by an experienced pathologist. There were 3 mice in each group.

[6] = Systemic toxicity, daily intraperitoneal injection in nude mice; conditions: for Signs of disease: up to 5 days
Protocol: Four to five-week old pathogen-free nude mice (nu/nu) were used and housed within plastic isolators in a sterile facility. […] Experimental treatments with podophyllotoxin, deoxypodophyllotoxin or picropodophyllin were performed by daily intraperitoneal injections of the compound in 100 μl volume of solvent, composed of a mixture of DMSO and physiological saline (8:2). Control mice were treated with the solvent. 3-6 animals were treated in each group. Animals were monitored three times a week for signs of disease and tumor growth. Tumor mass was estimated using the formula (d^2×D)/2, where d and D represent the small and large diameters of the tumor, respectively. The mice were carefully observed for presence of side effects and were sacrificed at the end of the experiments for histological analysis of the lesions. All experiments were performed according to the ethical guidelines for laboratory animal use, provided by institutional ethical committee.
In the next experiment we analyzed systemic effects of the drugs by injecting 100 μl intraperitoneally of each compound daily over 5 days. Two doses were injected (7 or 28 mg/kg/d) and 3-6 mice were used for each drug and dose. The mice were checked carefully daily for signs of discomfort, diseases and weight loss.

[7] = read-out: IC50 for cell viability
[8] = HL60, 72 h, read-out: IC50 for cell viability
[9] = 72 h, read-out: IC50 for cell viability
[10] = Homo sapiens, read-out: IC50 for cell viability, vincristine alone

Chain of IGF-1R (P08069 31-1367): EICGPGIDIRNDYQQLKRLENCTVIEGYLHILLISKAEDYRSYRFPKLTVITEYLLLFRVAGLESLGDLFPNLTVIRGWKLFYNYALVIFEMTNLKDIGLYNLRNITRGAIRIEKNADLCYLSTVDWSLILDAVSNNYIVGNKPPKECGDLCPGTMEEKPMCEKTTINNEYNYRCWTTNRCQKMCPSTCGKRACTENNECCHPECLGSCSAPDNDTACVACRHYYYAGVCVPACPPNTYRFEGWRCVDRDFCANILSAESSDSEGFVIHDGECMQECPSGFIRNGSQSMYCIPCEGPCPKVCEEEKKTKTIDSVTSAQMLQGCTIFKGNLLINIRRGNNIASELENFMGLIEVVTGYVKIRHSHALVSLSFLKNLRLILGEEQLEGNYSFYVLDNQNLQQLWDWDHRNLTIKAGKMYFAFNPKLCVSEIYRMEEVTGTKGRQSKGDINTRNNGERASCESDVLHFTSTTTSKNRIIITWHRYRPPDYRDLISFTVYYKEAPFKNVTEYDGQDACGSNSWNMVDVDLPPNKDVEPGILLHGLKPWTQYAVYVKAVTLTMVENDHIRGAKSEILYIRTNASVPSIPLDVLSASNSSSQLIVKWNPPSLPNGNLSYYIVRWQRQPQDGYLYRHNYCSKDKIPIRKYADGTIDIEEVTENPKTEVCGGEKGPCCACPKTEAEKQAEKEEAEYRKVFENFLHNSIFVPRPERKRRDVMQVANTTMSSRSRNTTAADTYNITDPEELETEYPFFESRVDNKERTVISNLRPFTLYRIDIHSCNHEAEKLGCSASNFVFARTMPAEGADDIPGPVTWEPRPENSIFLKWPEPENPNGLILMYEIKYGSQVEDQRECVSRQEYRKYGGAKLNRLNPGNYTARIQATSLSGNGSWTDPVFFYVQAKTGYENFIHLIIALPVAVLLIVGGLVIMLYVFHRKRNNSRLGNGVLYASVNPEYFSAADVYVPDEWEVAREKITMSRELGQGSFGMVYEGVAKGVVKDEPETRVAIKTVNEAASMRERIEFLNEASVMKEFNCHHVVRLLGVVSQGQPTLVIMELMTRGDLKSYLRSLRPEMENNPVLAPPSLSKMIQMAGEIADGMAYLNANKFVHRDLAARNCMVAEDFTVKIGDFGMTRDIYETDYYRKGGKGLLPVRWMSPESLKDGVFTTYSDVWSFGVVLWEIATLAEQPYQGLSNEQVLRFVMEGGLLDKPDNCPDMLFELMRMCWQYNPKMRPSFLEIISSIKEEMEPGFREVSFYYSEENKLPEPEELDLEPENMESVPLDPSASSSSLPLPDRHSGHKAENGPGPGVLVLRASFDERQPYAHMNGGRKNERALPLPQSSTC

In the case of `COc1cc([C@@H]2c3cc4c(cc3C=C3COC(=O)[C@H]32)OCO4)cc(OC)c1OC` [Alpha-apopicro, α-apopicropodophyllin], the IC50 [1, 7] is reported as 40 nM, the IC50 [2, 7] is reported as 50 nM and the IC50 [3, 8] is reported as 20 nM. For the same compound, the IC50 [4, 9] was 20 nM.
For `COc1cc([C@@H]2c3cc4c(cc3C[C@H]3COC(=O)[C@H]32)OCO4)cc(OC)c1OC` [Deoxypicropodophyllin, deoxypicropodophyllin], the “Level of IGF-1R phosphorylation in intact cells” value (“Level of IGF-1R phosphorylation” for short) (IGF-1R; 0.05 μM) was 5 % OD.
With `COc1cc([C@@H]2c3cc4c(cc3C[C@H]3COC(=O)[C@@H]32)OCO4)cc(OC)c1OC` [Deoxypodophyllotoxin, deoxypodophyllotoxin] the “Local tissue reactions” value [5] was “light damages”, the “Surviving mice/Investigated mice” value ([6]; 7 mg/kg/d i.p., 1 d) was 3/3 and the “Surviving mice/Investigated mice” value ([6]; 7 mg/kg/d i.p., 2 d) was 3/3. The “Surviving mice/Investigated mice” value ([6]; 7 mg/kg/d i.p., 3 d) was 3/3, the “Surviving mice/Investigated mice” value ([6]; 7 mg/kg/d i.p., 4 d) was 3/3 and the “Surviving mice/Investigated mice” value ([6]; 7 mg/kg/d i.p., 5 d) was 3/3. For the same compound, the “Surviving mice/Investigated mice” value ([6]; 28 mg/kg/d i.p., 1 d) was 6/6, the “Surviving mice/Investigated mice” value ([6]; 28 mg/kg/d i.p., 2 d) was 4/6 and the “Surviving mice/Investigated mice” value ([6]; 28 mg/kg/d i.p., 3 d) was 0/6. For the same compound, the “Signs of disease” value ([6]; high dose (28 mg/kg/d) i.p. daily) was “serious disease or death”, the “Signs of disease” value ([6]; low dose (7 mg/kg/d) i.p. daily) was “serious signs of disease” and the “Level of IGF-1R phosphorylation” value (IGF-1R; 0.05 μM) was 2 % OD.
For `COc1cc([C@@H]2c3cc4c(cc3[C@@H](O[C@@H]3O[C@@H]5CO[C@@H](C)O[C@H]5[C@H](O)[C@H]3O)[C@H]3COC(=O)[C@H]23)OCO4)cc(OC)c1O` [Etoposide, 4′-demethyl-7-(4,6-O-ethylidene-β-D-glucopyranosyl)epipodophyllotoxin], the “Level of IGF-1R phosphorylation” value (IGF-1R; 0.05 μM) was 102 % OD and the “Level of IGF-1R phosphorylation” value (IGF-1R; 15 μM) was 105 % OD.
For `COc1cc(C2c3cc4c(cc3C(OC3OC5COC(c6ccccc6)OC5C(O)C3O)C3COC(=O)C23)OCO4)cc(OC)c1OC` [Pf-4,6-O, podophyllotoxin-4,6-O-benzylidene-β-D-glucopyranoside], the “Level of IGF-1R phosphorylation” value (IGF-1R; 0.05 μM) was 100 % OD, the “Level of IGF-1R phosphorylation” value (IGF-1R; 15 μM) was 102 % OD and the “Effect on IGF-1R” value (IGF-1R; stated in description) was “completely disappeared”.
In the case of `CC[C@]1(O)C[C@H]2CN(CCc3c([nH]c4ccccc34)[C@@](C(=O)OC)(c3cc4c(cc3OC)N(C=O)[C@H]3[C@@](O)(C(=O)OC)[C@H](OC(C)=O)[C@]5(CC)C=CCN6CC[C@]43[C@@H]65)C2)C1` [Vincristine, vincristine, reference compound], the IC50 [1, 10] is reported as 1.6 nM, the IC50 [2, 10] is reported as 5 nM and the IC50 ([3]; Homo sapiens, HL-60, HL60/0, 72 h, read-out: IC50 for cell viability, vincristine alone) is reported as 0.8 nM. It also gave an IC50 ([4]; Homo sapiens, HL-60, 72 h, read-out: IC50 for cell viability, vincristine alone) of 1.2 nM.
Compound β-apopicropodophyllin [Beta-apopicro] has an IC50 [1, 7] of 10 nM, an IC50 [2, 7] of 10 nM and an IC50 [3, 8] of 10 nM. It also gave an IC50 [4, 9] of 10 nM.
